{"source": "patent US11806326B2", "about": "“Methods for dopamine modulation in human neurologic diseases” (priority 2018, dated 2023)", "key": {"tyrosine hydroxylase [1]": {"target": "T1, tyrosine hydroxylase (Bos taurus, UniProt P17289)", "T1 construct": "in bovine adrenal gland preparations; from tissue; host or cells: bovine (beef) adrenal gland", "T1 sequence (P17289 1-491)": "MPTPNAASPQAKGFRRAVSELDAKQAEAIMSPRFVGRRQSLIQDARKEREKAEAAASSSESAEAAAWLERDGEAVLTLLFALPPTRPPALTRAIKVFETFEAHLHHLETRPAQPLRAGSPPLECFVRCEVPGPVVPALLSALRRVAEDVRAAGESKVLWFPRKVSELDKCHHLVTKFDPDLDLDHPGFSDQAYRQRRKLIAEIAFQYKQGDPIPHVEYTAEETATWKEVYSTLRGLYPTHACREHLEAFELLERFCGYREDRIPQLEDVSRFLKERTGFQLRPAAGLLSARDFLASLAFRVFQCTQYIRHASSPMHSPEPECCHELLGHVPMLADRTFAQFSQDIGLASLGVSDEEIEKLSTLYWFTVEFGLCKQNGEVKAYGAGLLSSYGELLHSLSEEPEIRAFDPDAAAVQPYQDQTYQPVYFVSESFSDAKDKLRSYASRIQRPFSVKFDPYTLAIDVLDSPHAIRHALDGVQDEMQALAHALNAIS", "conditions": "cited from earlier work"}, "tyrosine hydroxylase [2]": {"system": "tyrosine hydroxylase", "conditions": "cited from earlier work"}, "tyrosine hydroxylase [3]": {"target": "tyrosine hydroxylase (Homo sapiens, UniProt P07101)", "sequence (P07101 whole entry)": "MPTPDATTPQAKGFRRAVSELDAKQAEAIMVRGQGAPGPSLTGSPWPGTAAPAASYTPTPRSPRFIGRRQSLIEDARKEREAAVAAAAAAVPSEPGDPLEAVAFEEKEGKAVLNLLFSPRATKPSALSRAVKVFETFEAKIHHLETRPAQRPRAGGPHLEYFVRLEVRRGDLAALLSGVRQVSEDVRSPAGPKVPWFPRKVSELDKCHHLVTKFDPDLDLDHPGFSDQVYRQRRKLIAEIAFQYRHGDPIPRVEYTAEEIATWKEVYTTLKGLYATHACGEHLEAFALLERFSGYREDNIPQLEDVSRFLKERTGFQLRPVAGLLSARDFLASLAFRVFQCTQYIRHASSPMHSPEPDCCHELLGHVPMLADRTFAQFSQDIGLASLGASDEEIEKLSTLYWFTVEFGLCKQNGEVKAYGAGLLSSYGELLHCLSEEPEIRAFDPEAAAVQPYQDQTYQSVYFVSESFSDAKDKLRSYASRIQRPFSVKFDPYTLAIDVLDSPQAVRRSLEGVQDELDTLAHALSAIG", "conditions": "cited from earlier work"}, "[4]": {"system": "spontaneously hypertensive rats", "conditions": "cited from earlier work"}, "[5]": {"conditions": "delivered orally, cited from earlier work"}, "[6]": {"system": "dopaminergic iPS cells originating from DJ-1 homozygous Parkinson's patients", "test": "Chronic inhibition of dopamine synthesis in dopaminergic iPS cells from DJ-1 homozygous Parkinson's patients", "type": "cell-based, human", "conditions": "chronic AMPT treatment, FIG. 5"}, "[7]": {"conditions": "Table 1A, amino acid analogs inhibiting tyrosine hydroxylase, read-out: Concentration for 50% Inhibition"}, "[8]": {"conditions": "Table 1A, concentration 10^−4 M"}, "[9]": {"conditions": "Table 1B, catecholamine analogs inhibiting tyrosine hydroxylase, read-out: Concentration for 50% Inhibition"}, "[10]": {"conditions": "Table 1B, concentration 10^−4 M"}}, "note": "Read-outs that look alike come from different tables or passages of the source."}
{"smiles": "CC(N)(Cc1ccc(O)c(Br)c1)C(=O)O", "note": "(racemic) [3-bromo-α-methyl-DL-tyrosine]", "values": [{"measurement": "IC50", "setting": "tyrosine hydroxylase [1]; [7]", "value": 1.5, "unit": "µM"}]}
{"smiles": "COc1ccc(CC(C)(N)C(=O)O)cc1Cl", "note": "(racemic) [3-chloro-4-methoxy-α-methyl-DL-phenylalanine]", "values": [{"measurement": "IC50", "setting": "tyrosine hydroxylase [1]; [7]", "value": 500, "unit": "µM"}]}
{"smiles": "CC(N)(Cc1ccc(O)c(Cl)c1)C(=O)O", "note": "(racemic) [3-chloro-α-methyl-DL-tyrosine]", "values": [{"measurement": "IC50", "setting": "tyrosine hydroxylase [1]; [7]", "value": 5, "unit": "µM"}]}
{"smiles": "CC(N)(Cc1ccc(O)c(F)c1)C(=O)O", "note": "(racemic) [3-fluoro-α-methyl-DL-tyrosine]", "values": [{"measurement": "IC50", "setting": "tyrosine hydroxylase [1]; [7]", "value": 200, "unit": "µM"}]}
{"smiles": "CC(N)(Cc1ccc(O)c(I)c1)C(=O)O", "note": "(racemic) [3-iodo-α-methyl-DL-tyrosine]", "values": [{"measurement": "IC50", "setting": "tyrosine hydroxylase [1]; [7]", "value": 0.3, "unit": "µM"}]}
{"smiles": "NC[C@H](O)c1ccc(O)c(O)c1", "note": "(racemic) [DL-norepinephrine]", "values": [{"measurement": "% Inhibition", "setting": "tyrosine hydroxylase [2]; Table 1B, concentration 2 × 10^−4 M", "value": 53, "unit": "%"}]}
{"smiles": "NC(Cc1ccc(F)cc1)C(=O)O", "note": "(racemic) [DL-p-fluoro-phenylalanine]", "values": [{"measurement": "% Inhibition", "setting": "tyrosine hydroxylase [2]; [8]", "value": 61, "unit": "%"}]}
{"smiles": "CC(N)(Cc1ccccc1)C(=O)O", "note": "(racemic) [α-methyl-DL-phenylalanine]", "values": [{"measurement": "IC50", "setting": "tyrosine hydroxylase [1]; [7]", "value": 80, "unit": "µM"}]}
{"smiles": "CC(N)(Cc1cccc(O)c1)C(=O)O", "note": "(racemic) [α-methyl-m-DL-tyrosine]", "values": [{"measurement": "% Inhibition", "setting": "tyrosine hydroxylase [2]; Table 1A, concentration 2 × 10−4 M", "value": 92, "unit": "%"}, {"measurement": "IC50", "setting": "tyrosine hydroxylase [1]; [7]", "value": "> 1000", "unit": "µM"}]}
{"smiles": "NC(=O)Cc1ccc(O)c(O)c1", "note": "[3,4-dihydroxyphenyl-acetamide]", "values": [{"measurement": "IC50", "setting": "tyrosine hydroxylase [1]; [9]", "value": 1000, "unit": "µM"}]}
{"smiles": "CCCC(C(N)=O)c1ccc(O)c(O)c1", "note": "(stereo not drawn) [3,4-dihydroxyphenyl-propyl-acetamide]", "values": [{"measurement": "% Inhibition", "setting": "tyrosine hydroxylase [2]; [10]", "value": 84, "unit": "%"}, {"measurement": "IC50", "setting": "tyrosine hydroxylase [1]; [9]", "value": 20, "unit": "µM"}]}
{"smiles": "N[C@H](Cc1ccc(O)c(O)c1)C(=O)O", "note": "[3,4-hydroxy-D-phenylalanine]", "values": [{"measurement": "IC50", "setting": "tyrosine hydroxylase [1]; [9]", "value": "> 4000", "unit": "µM"}]}
{"smiles": "N[C@@H](Cc1ccc(O)c(O)c1)C(=O)O", "note": "[3,4-hydroxy-L-phenylalanine]", "values": [{"measurement": "IC50", "setting": "tyrosine hydroxylase [1]; [9]", "value": 2000, "unit": "µM"}]}
{"smiles": "N[C@@H](Cc1cc(Br)c(O)c(Br)c1)C(=O)O", "note": "[3,5-dibromo -L-tyrosine]", "values": [{"measurement": "IC50", "setting": "tyrosine hydroxylase [1]; [7]", "value": 500, "unit": "µM"}]}
{"smiles": "N[C@@H](Cc1ccc(O)c(Cl)c1)C(=O)O", "note": "[3-chloro-L-tyrosine]", "values": [{"measurement": "IC50", "setting": "tyrosine hydroxylase [1]; [7]", "value": 10, "unit": "µM"}]}
{"smiles": "N[C@@H](Cc1ccc(O)c(I)c1)C(=O)O", "note": "[3-iodo-L-tyrosine]", "values": [{"measurement": "IC50", "setting": "tyrosine hydroxylase [1]; [7]", "value": 0.5, "unit": "µM"}]}
{"smiles": "N[C@H](Cc1ccc(O)c(O)c1)C(=O)O", "note": "[D-dopa]", "values": [{"measurement": "% Inhibition", "setting": "tyrosine hydroxylase [2]; [10]", "value": 0, "unit": "%"}]}
{"smiles": "CNC[C@H](O)c1ccc(O)c(O)c1", "note": "[D-epinephrine]", "values": [{"measurement": "% Inhibition", "setting": "tyrosine hydroxylase [2]; [10]", "value": 47, "unit": "%"}]}
{"smiles": "N[C@H](Cc1ccccc1)C(=O)O", "note": "[D-phenylalanine]", "values": [{"measurement": "% Inhibition", "setting": "tyrosine hydroxylase [2]; [8]", "value": 7, "unit": "%"}, {"measurement": "IC50", "setting": "tyrosine hydroxylase [1]; [7]", "value": "> 1000", "unit": "µM"}]}
{"smiles": "N[C@H](Cc1c[nH]c2ccccc12)C(=O)O", "note": "[D-tryptophan]", "values": [{"measurement": "% Inhibition", "setting": "tyrosine hydroxylase [2]; [8]", "value": 0, "unit": "%"}]}
{"smiles": "N[C@@H](Cc1ccc(O)c(O)c1)C(=O)O", "note": "[L-dopa]", "values": [{"measurement": "% Inhibition", "setting": "tyrosine hydroxylase [2]; [10]", "value": 68, "unit": "%"}]}
{"smiles": "CNC[C@H](O)c1ccc(O)c(O)c1", "note": "[L-epinephrine]", "values": [{"measurement": "% Inhibition", "setting": "tyrosine hydroxylase [2]; [10]", "value": 35, "unit": "%"}]}
{"smiles": "NC[C@@H](O)c1ccc(O)c(O)c1", "note": "[L-norepinephrine]", "values": [{"measurement": "IC50", "setting": "tyrosine hydroxylase [1]; [9]", "value": 1000, "unit": "µM"}]}
{"smiles": "N[C@@H](Cc1ccccc1)C(=O)O", "note": "[L-phenylalanine]", "values": [{"measurement": "% Inhibition", "setting": "tyrosine hydroxylase [2]; [8]", "value": 78, "unit": "%"}, {"measurement": "IC50", "setting": "tyrosine hydroxylase [1]; [7]", "value": 200, "unit": "µM"}]}
{"smiles": "N[C@@H](Cc1c[nH]c2ccccc12)C(=O)O", "note": "[L-tryptophan]", "values": [{"measurement": "% Inhibition", "setting": "tyrosine hydroxylase [2]; [8]", "value": 50, "unit": "%"}, {"measurement": "IC50", "setting": "tyrosine hydroxylase [1]; [7]", "value": "> 1000", "unit": "µM"}]}
{"smiles": "CCC[C@H]1CCC(=C2C(=O)CCC2=O)O1", "note": "[Oudenone, oudenone]", "values": [{"measurement": "tyrosine hydroxylase inhibition (in words)", "setting": "tyrosine hydroxylase [3]; directly measured", "value": "inhibit tyrosine hydroxylase"}, {"measurement": "effect on blood pressure", "setting": "[4]", "value": "reduce blood pressure"}]}
{"smiles": "C[C@H]1O[C@@H](c2ccc3c(c2O)C(=O)C2=C(C3=O)[C@@]3(O)C(=O)C[C@](C)(O)C[C@@]3(O)C=C2)C[C@@H](O)[C@@H]1O", "note": "[aquayamycin]", "values": [{"measurement": "potency as tyrosine hydroxylase inhibitor (in words)", "setting": "tyrosine hydroxylase [3]; compared with 3-iodo-α-methyl-DL-tyrosine", "value": "near that reported for 3-iodo-α-methyl-DL-tyrosine"}]}
{"smiles": "NCCc1ccc(O)c(O)c1", "note": "[dopamine]", "values": [{"measurement": "% Inhibition", "setting": "tyrosine hydroxylase [2]; [10]", "value": 56, "unit": "%"}]}
{"smiles": "C[C@@](N)(Cc1ccc(O)c(O)c1)C(=O)O", "note": "[α-methyl-3,4-dhydroxy-D-phenylalanine]", "values": [{"measurement": "IC50", "setting": "tyrosine hydroxylase [1]; [9]", "value": "> 8000", "unit": "µM"}]}
{"smiles": "C[C@](N)(Cc1ccc(O)c(O)c1)C(=O)O", "note": "[α-methyl-3,4-dhydroxy-L-phenylalanine]", "values": [{"measurement": "IC50", "setting": "tyrosine hydroxylase [1]; [9]", "value": 1500, "unit": "µM"}]}
{"smiles": "C[C@@](N)(Cc1ccc(O)cc1)C(=O)O", "note": "[α-methyl-D-tyrosine]", "values": [{"measurement": "IC50", "setting": "tyrosine hydroxylase [1]; [7]", "value": "> 1000", "unit": "µM"}]}
{"smiles": "C[C@](N)(Cc1ccc(O)cc1)C(=O)O", "note": "[α-methyl-L-tyrosine]", "values": [{"measurement": "% Inhibition", "setting": "tyrosine hydroxylase [2]; [8]", "value": 86, "unit": "%"}, {"measurement": "inhibition of tyrosine hydroxylase", "setting": "tyrosine hydroxylase [2]; concentration of 10^−4M, guinea pig brain particle preparations", "value": 86, "unit": "%"}, {"measurement": "metabolites recovered in the urine", "setting": "[5]; alpha-methyl-dopa, alpha-methyl-dopamine, alpha-methyl-norepinephrine", "value": "relatively little"}, {"measurement": "oral absorption", "setting": "[5]", "value": "~69", "unit": "%"}, {"measurement": "IC50", "setting": "tyrosine hydroxylase [1]; bovine adrenal gland preparations, read-out: concentration inhibiting tyrosine hydroxylase by 50%", "value": 25, "unit": "µM"}, {"measurement": "deposition of α-synuclein", "setting": "[6]", "value": "blunted deposition of α-synuclein"}, {"measurement": "levels of oxidized dopamine", "setting": "[6]", "value": "lower levels of oxidized dopamine"}, {"measurement": "oxidative stress", "setting": "[6]", "value": "reduced oxidative stress"}]}
